These are literature values, as cited in US7875639B2, “Compounds as cannabinoid receptor ligands and uses thereof” (priority 2006, dated 2011).

One series relates to animal models. Conditions: animal models of acute thermal pain, persistent pain, inflammatory pain and neuropathic pain.
The conditions of series [1]: at fully efficacious doses.
The next series has as its system rodent models. The note with it: rodent models of neuropathic, incisional, and both chronic and acute inflammatory pain.
The subject of another series is rat. The note with it: rat formalin model of persistent pain.
Another series deals with microglia. The note with it: in vitro.
Series [2] relates to CB1I receptor knockout mice. The note with it: CB1 receptor knockout mice.
Series [3] concerns apolipoprotein F knockout mice. The note with it: low doses.
The next series concerns mice. Conditions: model for post-menopausal osteoporosis.

Regarding `CN1CCCCC1Cn1cc(C(=O)c2cc([N+](=O)[O-])ccc2I)c2ccccc21` (stereo not shown) [AM-1241], the analgesic efficacy result in the series on animal models is recorded as “exhibits robust analgesic efficacy”. Moreover, in series [1], the “typical CB1 receptor-mediated CNS side effects” value is on record as “devoid of typical CB1 receptor-medicated CNS side effects”. With `COc1ccc2c(c1)c(CCN1CCOCC1)c(C)n2C(=O)c1cccc(Cl)c1Cl` [GW405833], the “efficacy in pain models” value in the series on rodent models is reported as “is efficacious”. Moreover, the “typical CB1 receptor-mediated CNS side effects” value in [1] was “devoid of typical CB1 receptor-medicated CNS side effects”.

For the compound `CCCCCCC(C)(C)c1cc(OC)c([C@@H]2C=C(CO)[C@@H]3C[C@H]2C3(C)C)c(OC)c1` [HU-308], the antinociceptive response entry with rat is “elicits an antinociceptive response”.

Turning to `CCCC(C)(C)c1ccc2c(c1)OC(C)(C)[C@@H]1CC=C(C)C[C@@H]21` [JWH-133], the “β-amyloid-induced microglial activation and neurotoxicity” value with microglia was “abrogated β-amyloid-induced microglial activation and neurotoxicity”.

Turning to (−)-Δ^9-Tetrahydrocannabinol [Δ^9-THC], in series [2], the analgesic efficacy entry was “retains some analgesic efficacy”. Further, in series [3], the “progression of atherosclerotic lesions” value is listed as “slowed the progression of atherosclerotic lesions”. Take SR144528: in the series on osteoclast, the osteoclast activity result was “inhibit osteoclast activity”. Also, the ovariectomy-induced bone loss result in the series with mice is “reverse ovariectomy-induced bone loss”.
